According to publication PMC8003416, “Modulation of Human Phenylalanine Hydroxylase by 3-Hydroxyquinolin-2(1H)-One Derivatives” (Biomolecules, 2021):

Tests used:
[1] = target: T1, human phenylalanine hydroxylase (hPAH) (Homo sapiens, UniProt P00439); experiment: Small-angle X-ray scattering of hPAH; conditions: 200 μM in buffer/2% DMSO
T1 construct: Recombinant full-length wild-type (WT) hPAH was expressed in E. coli Top10 cells in fusion with a hexa-histidyl peptide; made in house; host or cells: E. coli Top10
T1 sequence (P00439 1-452): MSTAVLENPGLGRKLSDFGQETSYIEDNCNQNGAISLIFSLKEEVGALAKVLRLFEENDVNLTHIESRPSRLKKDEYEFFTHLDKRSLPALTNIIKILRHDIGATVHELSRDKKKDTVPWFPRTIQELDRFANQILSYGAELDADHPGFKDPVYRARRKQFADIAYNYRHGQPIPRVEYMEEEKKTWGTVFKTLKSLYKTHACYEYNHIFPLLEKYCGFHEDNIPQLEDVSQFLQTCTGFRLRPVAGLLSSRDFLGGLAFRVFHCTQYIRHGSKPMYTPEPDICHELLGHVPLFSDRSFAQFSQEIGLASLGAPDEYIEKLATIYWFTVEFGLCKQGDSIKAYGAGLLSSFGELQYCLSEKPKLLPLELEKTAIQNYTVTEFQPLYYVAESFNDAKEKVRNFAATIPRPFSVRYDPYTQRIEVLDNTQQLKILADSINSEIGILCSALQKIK
Description: Small-angle X-ray scattering experiments were performed at the Diamond Light Source B21 [30] beamline at a wavelength of 0.95 Å. Tetrameric hPAH was thawed on ice, centrifuged at 12,000× g for 8 min at 4 °C, and quantitated using a NanoDrop (molar extinction coefficient: 10.09 mg/mL/cm) prior to data acquisition. Measurements were performed in static mode with the automated sample changer at 20 °C using a protein concentration of 86 μM (monomer) in 20 mM Na-HEPES, 200 mM NaCl, pH 7.0 in the absence or presence of 2% DMSO. L-Phe and compound 9 were tested at a final concentration of 200 μM in 2% DMSO. Data were recorded using a Pilatus 2M detector covering a momentum transfer 0.0031 < s < 0.380 Å-1 (s = 4π sin θ/λ, where 2θ is the scattering angle). The data were processed and analyzed using the ATSAS program suite. The sample frames were monitored for radiation damage, the selected frames were averaged, and the buffer contribution was subtracted using PRIMUS [32]. The radius of gyration (Rg) and the maximum particle dimension (Dmax) were estimated from the Guinier approximation using PRIMUS and from the pair-distribution function P(r) using the GNOM package, respectively. Fitting of the experimental curves and the theoretical curves computed from SASBDB models was performed using CRYSOL [31].

Factor Xa (FXa) = target: T2, Factor Xa (FXa) (Bos taurus, UniProt P00743); experiment: Factor Xa activity control with Boc-Ile-Glu-Gly-Arg-AMC; type: biochemical; conditions: 100 μM compound; for FXa relative (residual) enzyme activity: 1% DMSO control = 100%; for Factor Xa Abs/min: control 597 ± 16
T2 construct: purchased New England Biolabs
T2 sequence (P00743 234-492 limits assumed): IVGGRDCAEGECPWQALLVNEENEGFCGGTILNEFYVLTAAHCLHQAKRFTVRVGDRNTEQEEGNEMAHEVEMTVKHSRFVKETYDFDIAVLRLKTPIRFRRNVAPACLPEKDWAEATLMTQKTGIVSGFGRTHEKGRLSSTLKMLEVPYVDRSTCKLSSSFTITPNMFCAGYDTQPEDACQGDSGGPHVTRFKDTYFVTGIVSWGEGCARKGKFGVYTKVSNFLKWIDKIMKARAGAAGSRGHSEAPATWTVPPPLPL
T2 sequence (P00743 41-180 partner limits assumed): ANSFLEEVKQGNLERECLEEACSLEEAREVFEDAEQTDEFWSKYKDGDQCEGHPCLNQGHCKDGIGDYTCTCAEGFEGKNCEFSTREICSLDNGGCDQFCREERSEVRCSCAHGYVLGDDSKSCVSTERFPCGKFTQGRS
Description: Self-assembly of the dimeric forms of hPAH-RD^1–120 was followed in real-time at 25 °C upon cleavage of MBP-FXa-hPAH-RD^1–120 with FXa (New England Biolabs) to release the MBP fusion partner. Assays (n = 3) were performed in the absence or presence of tested compounds as described in [17]. Briefly, FXa (at a final ratio 1:150 (w/w) relative to the fusion protein) was added to the reaction mixture containing the MBP-FXa-hPAH-RD^1–120 fusion protein (0.74 mg/mL), 20 mM Na-HEPES, 100 mM NaCl, pH 7.0 and tested 3HQ (100 μM). The increase in absorbance at 350 nm was followed for 180 min on a FLUOstar Omega (BMG Labtech) microplate reader. A shaking step was introduced before each measurement. Appropriate control assays were performed and included: (i) a positive control consisting of MBP-FXa-hPAH-RD^1–120 in the presence of FXa, 1% DMSO and in the absence of compounds; and (ii) a negative control consisting of MBP-FXa-hPAH-RD^1–120 in the absence of FXa and compounds. For all the assays, aliquots of the aggregation reaction were collected at the end of the reaction (180 min) and analyzed by SDS-PAGE to confirm the extent of MBP cleavage by FXa. In addition, the effect of tested compounds on FXa activity was monitored using the synthetic FXa substrate Boc–Ile–Glu-Gly–Arg–AMC (t-(Butyloxycarbonyl)-isoleucylglutamylglycylarginyl-7-amido-4-methylcoumarin; from Bachem). Assays (n = 3) were performed in a 96-well plate, in a final volume of 200 μL containing 20 mM Na-HEPES, 100 mM NaCl, pH 7.0, 5 μg/mL of FXa, 50 μM of Boc–Ile-Glu–Gly–Arg–AMC and 100 μM of 3HQ derivatives. Fluorescence was measured in real-time (λexc 360 nm and λem 460 nm) during 30 min, at 25 °C. Controls were performed using substrate alone with 1% DMSO (negative control) and FXa with no compounds and 1% DMSO (positive control).

Structure (SMILES)	Dmax of hPAH [1] [Å]	MM of hPAH (MM = VP/1.6) [1] [kDa]	Rg^Guinier of hPAH [1] [Å]	VP (excluded particle volume) of hPAH [1]	FXa relative (residual) enzyme activity (Factor Xa (FXa)) [%]	Factor Xa Abs/min (Factor Xa (FXa)) [Abs/min]	Rg^P(r) of hPAH [1] [Å]
N[C@@H](Cc1ccccc1)C(=O)O [L-Phe, L-phenylalanine, reference compound]	179	393	52.73 ± 0.07	629,301 Å^3	–	–	–
COC(=O)CC[C@H](NC(=O)c1c(O)c(=O)[nH]c2ccc(OC(F)(F)F)cc12)C(=O)OC [Compound 9]	189	268	52.14 ± 0.07	428,899 Å^3	77	465 ± 29	52.00 ± 0.05
COC(=O)CNC(=O)c1c(O)c(=O)[nH]c2ccc(OC(F)(F)F)cc12 [Compound 11]	–	–	–	–	69	407 ± 8	–
